# Assays:
# Assay in all cases: scanMAX kinase assay panel
# Assay type in all cases: binding
# Conditions in all cases: read-out: control percentage (% control)
# JNK2 = target: T1, JNK2 (Homo sapiens, UniProt P45984)
# T1 construct: purchased DiscoverX scanMAX kinase assay panel
# Description: (§1) The activities of the compounds according to the present invention to more diverse enzymes were evaluated. Specifically, it was decided that the enzyme selectivity of Example 74 selected from the compounds of Examples 1 to 129 was measured at the request of DiscoverX, and the experiment was conducted using a scanMAX™ kinase assay panel. At this time, as a drug to treat the enzyme, a solution prepared by dissolving in DMSO at a concentration of 1 μM was used, and the control percentage (% control) was determined by the method of Equation 1 below, and the results were shown in Table 2 below.
# (§2) In Equation above, the positive control and negative control mean compounds showing control percentages of 0% and 100% as DMSO, respectively.
# DLK = target: T2, DLK (Homo sapiens, UniProt Q12852)
# T2 construct: purchased DiscoverX scanMAX kinase assay panel
# Description: as §1, §2
# [1] = target: T3, RSK3(Kin.Dom.2-C-terminal) (Homo sapiens, UniProt Q15349)
# T3 construct: RSK3(Kin.Dom.2-C-terminal); purchased DiscoverX scanMAX kinase assay panel
# Description: as §1, §2
# EGFR(E746-A750del) = target: T4, EGFR(E746-A750del) (Homo sapiens, UniProt P00533, DEL746-750)
# T4 construct: purchased DiscoverX scanMAX kinase assay panel
# Description: as §1, §2
# [2] = target: T5, ABL1(H396P)-nonphosphorylated (Homo sapiens, UniProt P00519, H396P)
# T5 construct: purchased DiscoverX (scanMAX panel, contract assay)
# Description: as §1, §2
# CLK1 = target: T6, CLK1 (Homo sapiens, UniProt P49759)
# T6 construct: purchased DiscoverX (scanMAX panel, contract assay)
# Description: as §1, §2
# SRPK3 = target: T7, SRPK3 (Homo sapiens, UniProt Q9UPE1)
# T7 construct: purchased DiscoverX
# Description: as §1, §2
# TIE1 = target: T8, TIE1 (Homo sapiens, UniProt P35590)
# T8 construct: purchased DiscoverX
# Description: as §1, §2
# TAOK3 = target: T9, TAOK3 (Homo sapiens, UniProt Q9H2K8)
# T9 construct: purchased DiscoverX
# Description: as §1, §2
# ULK3 = target: T10, ULK3 (Homo sapiens, UniProt Q6PHR2)
# T10 construct: purchased DiscoverX
# Description: as §1, §2
# [3] = target: T11, JAK1(JH2domain-pseudokinase) (Homo sapiens, UniProt P23458)
# T11 construct: JAK1(JH2domain-pseudokinase); purchased DiscoverX scanMAX kinase assay panel
# Description: as §1, §2
# RET(V804L) = target: T12, RET(V804L) (Homo sapiens, UniProt P07949, V804L)
# T12 construct: purchased DiscoverX scanMAX kinase assay panel
# Description: as §1, §2
# CDK4 = target: T13, CDK4 (Homo sapiens, UniProt P11802)
# T13 construct: purchased DiscoverX (scanMAX panel, contract assay)
# Description: as §1, §2
# CDK7 = target: T14, CDK7 (Homo sapiens, UniProt P50613)
# T14 construct: purchased DiscoverX (scanMAX panel, contract assay)
# Description: as §1, §2
# FLT3(N841I) = target: T15, FLT3(N841I) (Homo sapiens, UniProt P36888, N841I)
# T15 construct: purchased DiscoverX scanMAX kinase assay panel
# Description: as §1, §2
# IRAK3 = target: T16, IRAK3 (Homo sapiens, UniProt Q9Y616)
# T16 construct: purchased DiscoverX scanMAX kinase assay panel
# Description: as §1, §2
# SNARK = target: T17, SNARK (Homo sapiens, UniProt Q9H093)
# T17 construct: purchased DiscoverX
# Description: as §1, §2
# CDKL2 = target: T18, CDKL2 (Homo sapiens, UniProt Q92772)
# T18 construct: purchased DiscoverX (scanMAX panel, contract assay)
# Description: as §1, §2
# ALK(C1156Y) = target: T19, ALK(C1156Y) (Homo sapiens, UniProt Q9UM73, C1156Y)
# T19 construct: purchased DiscoverX (scanMAX panel, contract assay)
# Description: as §1, §2
# FLT3(K663Q) = target: T20, FLT3(K663Q) (Homo sapiens, UniProt P36888, K663Q)
# T20 construct: purchased DiscoverX scanMAX kinase assay panel
# Description: as §1, §2
# PIP5K2B = target: T21, PIP5K2B (Homo sapiens, UniProt P78356)
# T21 construct: purchased DiscoverX scanMAX kinase assay panel
# Description: as §1, §2
# [4] = target: T22, JAK2(JH1domain-catalytic) (Homo sapiens, UniProt O60674)
# T22 construct: JAK2(JH1 domain-catalytic); purchased DiscoverX scanMAX kinase assay panel
# Description: as §1, §2
# [5] = target: T23, TYK2(JH1domain-catalytic) (Homo sapiens, UniProt P29597)
# T23 construct: TYK2(JH1domain-catalytic); purchased DiscoverX
# Description: as §1, §2
# MAP3K2 = target: T24, MAP3K2 (Homo sapiens, UniProt Q9Y2U5)
# T24 construct: purchased DiscoverX scanMAX kinase assay panel
# Description: as §1, §2
# EPHB4 = target: T25, EPHB4 (Homo sapiens, UniProt P54760)
# T25 construct: purchased DiscoverX scanMAX kinase assay panel
# Description: as §1, §2
# MARK3 = target: T26, MARK3 (Homo sapiens, UniProt P27448)
# T26 construct: purchased DiscoverX scanMAX kinase assay panel
# Description: as §1, §2
# ALK = target: T27, ALK (Homo sapiens, UniProt Q9UM73)
# T27 construct: purchased DiscoverX (scanMAX panel, contract assay)
# Description: as §1, §2
# [6] = target: T28, RSK4(Kin.Dom.2-C-terminal) (Homo sapiens, UniProt Q9UK32)
# T28 construct: RSK4(Kin.Dom.2-C-terminal); purchased DiscoverX scanMAX kinase assay panel
# Description: as §1, §2
# ITK = target: T29, ITK (Homo sapiens, UniProt Q08881)
# T29 construct: purchased DiscoverX scanMAX kinase assay panel
# Description: as §1, §2
# BLK = target: T30, BLK (Homo sapiens, UniProt P51451)
# T30 construct: purchased DiscoverX (scanMAX panel, contract assay)
# Description: as §1, §2
# MLK1 = target: T31, MLK1 (Homo sapiens, UniProt P80192)
# T31 construct: purchased DiscoverX scanMAX kinase assay panel
# Description: as §1, §2
# EGFR(T790M) = target: T32, EGFR(T790M) (Homo sapiens, UniProt P00533, T790M)
# T32 construct: purchased DiscoverX scanMAX kinase assay panel
# Description: as §1, §2
# FLT3(D835V) = target: T33, FLT3(D835V) (Homo sapiens, UniProt P36888, D835V)
# T33 construct: purchased DiscoverX scanMAX kinase assay panel
# Description: as §1, §2
# T10 sequence (Q6PHR2 whole entry): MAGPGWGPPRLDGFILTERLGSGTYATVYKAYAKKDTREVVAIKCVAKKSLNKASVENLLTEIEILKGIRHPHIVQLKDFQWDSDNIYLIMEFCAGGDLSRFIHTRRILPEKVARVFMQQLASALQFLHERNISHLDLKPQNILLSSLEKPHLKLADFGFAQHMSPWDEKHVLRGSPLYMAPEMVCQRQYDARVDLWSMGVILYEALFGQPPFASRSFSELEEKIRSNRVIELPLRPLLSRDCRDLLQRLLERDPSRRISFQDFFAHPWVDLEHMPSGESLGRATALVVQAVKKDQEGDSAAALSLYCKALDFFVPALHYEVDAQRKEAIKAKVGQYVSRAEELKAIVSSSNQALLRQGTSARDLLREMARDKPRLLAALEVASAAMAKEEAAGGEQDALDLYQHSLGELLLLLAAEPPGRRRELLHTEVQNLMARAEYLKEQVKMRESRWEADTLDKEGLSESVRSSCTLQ
# T16 sequence (Q9Y616 whole entry): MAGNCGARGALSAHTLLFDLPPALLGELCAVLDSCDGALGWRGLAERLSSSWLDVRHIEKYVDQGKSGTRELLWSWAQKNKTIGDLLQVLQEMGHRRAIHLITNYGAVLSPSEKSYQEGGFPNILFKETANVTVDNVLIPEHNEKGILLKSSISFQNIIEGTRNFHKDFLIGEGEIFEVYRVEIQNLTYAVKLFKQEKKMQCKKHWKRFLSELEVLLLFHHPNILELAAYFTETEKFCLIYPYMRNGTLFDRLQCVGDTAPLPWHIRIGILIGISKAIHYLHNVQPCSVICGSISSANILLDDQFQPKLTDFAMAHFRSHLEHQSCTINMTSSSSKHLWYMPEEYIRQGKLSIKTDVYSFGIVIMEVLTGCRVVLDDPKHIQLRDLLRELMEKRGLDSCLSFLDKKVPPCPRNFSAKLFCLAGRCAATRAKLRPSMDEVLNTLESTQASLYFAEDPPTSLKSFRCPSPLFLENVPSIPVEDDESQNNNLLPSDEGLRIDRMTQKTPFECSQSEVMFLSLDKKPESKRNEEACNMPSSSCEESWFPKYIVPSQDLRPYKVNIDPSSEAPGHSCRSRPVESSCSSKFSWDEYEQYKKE
# T30 sequence (P51451 whole entry): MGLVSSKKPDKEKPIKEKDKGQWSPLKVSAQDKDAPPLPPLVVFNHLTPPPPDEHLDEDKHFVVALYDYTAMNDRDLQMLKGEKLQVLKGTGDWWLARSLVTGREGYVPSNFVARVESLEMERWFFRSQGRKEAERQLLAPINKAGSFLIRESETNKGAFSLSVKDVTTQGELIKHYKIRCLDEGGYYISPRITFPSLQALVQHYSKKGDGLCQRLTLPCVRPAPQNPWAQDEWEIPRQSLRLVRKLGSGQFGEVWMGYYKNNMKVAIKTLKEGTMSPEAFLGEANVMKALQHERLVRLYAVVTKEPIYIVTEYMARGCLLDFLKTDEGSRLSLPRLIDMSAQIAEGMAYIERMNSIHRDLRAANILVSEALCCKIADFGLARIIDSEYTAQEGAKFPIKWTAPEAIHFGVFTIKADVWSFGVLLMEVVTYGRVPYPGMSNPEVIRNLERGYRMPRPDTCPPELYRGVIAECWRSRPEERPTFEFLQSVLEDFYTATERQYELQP
# T8 sequence (P35590 22-1138): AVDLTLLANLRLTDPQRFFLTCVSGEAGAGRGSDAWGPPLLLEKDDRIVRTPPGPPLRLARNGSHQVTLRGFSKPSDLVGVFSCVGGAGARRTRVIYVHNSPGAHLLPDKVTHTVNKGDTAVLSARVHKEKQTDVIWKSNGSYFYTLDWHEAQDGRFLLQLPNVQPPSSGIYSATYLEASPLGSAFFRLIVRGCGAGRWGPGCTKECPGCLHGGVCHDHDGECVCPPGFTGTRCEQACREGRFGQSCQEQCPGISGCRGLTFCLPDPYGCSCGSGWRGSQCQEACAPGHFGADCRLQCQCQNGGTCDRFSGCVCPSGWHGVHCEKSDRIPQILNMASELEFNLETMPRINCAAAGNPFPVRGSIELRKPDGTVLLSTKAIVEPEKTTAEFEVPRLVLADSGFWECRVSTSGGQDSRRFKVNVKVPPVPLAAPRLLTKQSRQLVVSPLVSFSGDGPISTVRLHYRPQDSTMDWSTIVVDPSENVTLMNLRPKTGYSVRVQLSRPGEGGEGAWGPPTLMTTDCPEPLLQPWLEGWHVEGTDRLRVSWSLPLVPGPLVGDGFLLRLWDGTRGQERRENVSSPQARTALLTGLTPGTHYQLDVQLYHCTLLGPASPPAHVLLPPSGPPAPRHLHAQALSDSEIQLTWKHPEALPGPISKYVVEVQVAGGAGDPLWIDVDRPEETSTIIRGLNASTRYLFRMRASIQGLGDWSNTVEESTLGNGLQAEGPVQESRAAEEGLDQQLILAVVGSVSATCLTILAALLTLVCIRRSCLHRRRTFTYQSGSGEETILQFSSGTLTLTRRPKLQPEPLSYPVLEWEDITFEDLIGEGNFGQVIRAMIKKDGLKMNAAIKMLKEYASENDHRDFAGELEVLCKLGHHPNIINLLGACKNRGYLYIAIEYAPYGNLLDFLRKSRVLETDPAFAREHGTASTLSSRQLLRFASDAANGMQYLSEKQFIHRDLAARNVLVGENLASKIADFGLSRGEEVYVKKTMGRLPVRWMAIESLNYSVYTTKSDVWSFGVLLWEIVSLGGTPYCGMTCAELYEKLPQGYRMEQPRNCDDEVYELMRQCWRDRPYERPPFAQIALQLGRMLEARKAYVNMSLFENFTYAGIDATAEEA
# T13 sequence (P11802 whole entry): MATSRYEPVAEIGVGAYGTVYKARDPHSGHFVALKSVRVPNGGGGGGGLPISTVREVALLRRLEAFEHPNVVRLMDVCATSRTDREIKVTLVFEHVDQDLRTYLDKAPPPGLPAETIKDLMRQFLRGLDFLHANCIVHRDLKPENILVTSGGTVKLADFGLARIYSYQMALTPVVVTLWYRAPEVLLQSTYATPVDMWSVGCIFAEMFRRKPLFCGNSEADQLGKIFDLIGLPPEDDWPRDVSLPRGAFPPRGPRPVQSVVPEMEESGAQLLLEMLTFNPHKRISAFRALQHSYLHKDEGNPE
# T2 sequence (Q12852 whole entry): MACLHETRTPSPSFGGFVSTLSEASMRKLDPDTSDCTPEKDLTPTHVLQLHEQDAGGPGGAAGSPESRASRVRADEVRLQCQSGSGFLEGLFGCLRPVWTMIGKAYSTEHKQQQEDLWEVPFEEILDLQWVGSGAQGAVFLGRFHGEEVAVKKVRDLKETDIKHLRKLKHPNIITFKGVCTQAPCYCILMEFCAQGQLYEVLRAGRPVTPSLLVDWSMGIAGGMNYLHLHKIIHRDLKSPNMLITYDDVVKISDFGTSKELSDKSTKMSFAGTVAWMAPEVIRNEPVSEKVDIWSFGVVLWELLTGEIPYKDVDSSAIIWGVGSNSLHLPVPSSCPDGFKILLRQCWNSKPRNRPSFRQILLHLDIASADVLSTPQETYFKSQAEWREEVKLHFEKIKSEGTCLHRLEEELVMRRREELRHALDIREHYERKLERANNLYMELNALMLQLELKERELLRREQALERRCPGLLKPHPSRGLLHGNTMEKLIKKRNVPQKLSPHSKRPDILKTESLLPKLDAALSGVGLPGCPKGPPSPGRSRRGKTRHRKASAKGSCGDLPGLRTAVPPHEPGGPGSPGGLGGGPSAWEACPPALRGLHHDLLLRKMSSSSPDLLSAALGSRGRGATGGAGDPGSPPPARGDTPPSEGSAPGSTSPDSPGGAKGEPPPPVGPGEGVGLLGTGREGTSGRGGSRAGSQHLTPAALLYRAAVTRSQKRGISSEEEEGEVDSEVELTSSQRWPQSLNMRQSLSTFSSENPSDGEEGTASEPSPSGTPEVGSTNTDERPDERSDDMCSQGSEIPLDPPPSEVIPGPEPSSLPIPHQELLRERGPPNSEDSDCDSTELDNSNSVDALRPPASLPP
# T25 sequence (P54760 16-987): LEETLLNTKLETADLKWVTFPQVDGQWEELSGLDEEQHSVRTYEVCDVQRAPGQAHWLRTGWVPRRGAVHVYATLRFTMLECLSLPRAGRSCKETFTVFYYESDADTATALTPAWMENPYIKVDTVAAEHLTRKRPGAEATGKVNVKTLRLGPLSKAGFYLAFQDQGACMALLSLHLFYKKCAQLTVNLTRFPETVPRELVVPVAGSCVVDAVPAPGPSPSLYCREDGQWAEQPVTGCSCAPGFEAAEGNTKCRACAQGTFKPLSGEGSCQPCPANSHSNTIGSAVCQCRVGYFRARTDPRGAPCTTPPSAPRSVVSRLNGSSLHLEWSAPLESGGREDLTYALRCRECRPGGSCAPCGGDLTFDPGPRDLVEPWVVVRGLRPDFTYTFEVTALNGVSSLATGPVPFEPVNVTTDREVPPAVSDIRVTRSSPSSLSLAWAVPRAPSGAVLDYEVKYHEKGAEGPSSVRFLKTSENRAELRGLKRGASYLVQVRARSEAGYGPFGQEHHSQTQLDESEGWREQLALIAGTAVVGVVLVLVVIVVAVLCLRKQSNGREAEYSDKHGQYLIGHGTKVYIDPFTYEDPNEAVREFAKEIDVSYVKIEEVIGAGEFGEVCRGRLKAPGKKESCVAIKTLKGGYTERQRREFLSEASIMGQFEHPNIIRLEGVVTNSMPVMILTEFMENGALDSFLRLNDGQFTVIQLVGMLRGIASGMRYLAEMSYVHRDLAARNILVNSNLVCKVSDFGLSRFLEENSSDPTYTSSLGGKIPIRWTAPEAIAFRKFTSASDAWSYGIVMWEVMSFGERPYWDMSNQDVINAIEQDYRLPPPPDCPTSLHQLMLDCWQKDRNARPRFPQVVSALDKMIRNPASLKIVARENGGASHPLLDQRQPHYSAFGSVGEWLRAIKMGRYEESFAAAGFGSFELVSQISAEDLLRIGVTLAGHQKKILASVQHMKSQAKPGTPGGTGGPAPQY
compound,measurement,setting,value
"CN1CCN(c2ccc(Nc3nc(N4OCC[C@H]4c4ccccc4)c4cc[nH]c4n3)cc2)CC1 [Example 74, (S)-N-(4-(4-methylpiperazin-1-yl)phenyl)-4-(3-phenylisoxazolidin-2-yl)-7H-pyrrolo[2,3-d]pyrimidin-2-amine]",remaining binding at 1 µM,JNK2,29%
same,remaining binding at 1 µM,DLK,9.2%
same,remaining binding at 1 µM,[1],17%
same,remaining binding at 1 µM,EGFR(E746-A750del),0%
same,remaining binding at 1 µM,[2],18%
same,remaining binding at 1 µM,CLK1,3.4%
same,remaining binding at 1 µM,SRPK3,13%
same,remaining binding at 1 µM,TIE1,16%
same,remaining binding at 1 µM,TAOK3,22%
same,remaining binding at 1 µM,ULK3,13%
same,remaining binding at 1 µM,[3],1.2%
same,remaining binding at 1 µM,RET(V804L),5.3%
same,remaining binding at 1 µM,CDK4,10%
same,remaining binding at 1 µM,CDK7,21%
same,remaining binding at 1 µM,FLT3(N841I),0.3%
same,remaining binding at 1 µM,IRAK3,24%
same,remaining binding at 1 µM,SNARK,3.7%
same,remaining binding at 1 µM,CDKL2,8.2%
same,remaining binding at 1 µM,ALK(C1156Y),15%
same,remaining binding at 1 µM,FLT3(K663Q),2.3%
same,remaining binding at 1 µM,PIP5K2B,18%
same,remaining binding at 1 µM,[4],0%
same,remaining binding at 1 µM,[5],5.6%
same,remaining binding at 1 µM,MAP3K2,14%
same,remaining binding at 1 µM,EPHB4,31%
same,remaining binding at 1 µM,MARK3,5.3%
same,remaining binding at 1 µM,ALK,31%
same,remaining binding at 1 µM,[6],31%
same,remaining binding at 1 µM,ITK,5.1%
same,remaining binding at 1 µM,BLK,19%
same,remaining binding at 1 µM,MLK1,24%
same,remaining binding at 1 µM,EGFR(T790M),3.7%
same,remaining binding at 1 µM,FLT3(D835V),1.7%

# Reference: patent publication US20220242870A1, “HETEROCYCLE-FUSED PYRIMIDINE DERIVATIVE AND USE THEREOF” (VORONOI Inc., priority 2019, published 2022)
